In brackets after ≈: the same amount, converted by molar mass. Non-standard residues stand in square brackets, D forms with d. Residues, ends and D or L forms follow the SMILES beside them. *: point of attachment. Palmitoyl = CCCCCCCCCCCCCCCC(=O)*
Key:
[1] = test system: Candida albicans “R”; assay type: cell-based; details: 24 h, pH 5.6
Method: (§1) Strains of Candida albicans, Candida tropicalis and Candida glabrata, frequently found in cases of oral candidosis, were tested for L-bCtl and D-bCtl antimicrobial activity. The sensitive strain of C. albicans (ATCC 10231^TM) was provided by ATCC (Manassas, VA, USA). The resistant strain of C. albicans, the sensitive and resistant strains of C. tropicalis as well as the sensitive and resistant strains of C. glabrata were kindly provided by Dr Valérie Letscher-Bru (Laboratory of Parasitolology and Medical Mycology, Strasbourg, France).
(§2) Each Candida strain was first plated on agar plates and cultured for 24 h at 37 °C. After incubation, one colony per isolate was transferred into 5 mL of Sabouraud medium pH 5.6 (Sigma-Aldrich, Le Pont-de-Claix, France) supplemented with tetracycline (10 μg/mL) and cefotaxime (10 μg/mL) and incubated aerobically under agitation at 37 °C for 24 h. The resulting cultures were resuspended at an absorbance of 0.001 (OD600nm = 0.001) in Sabouraud medium. The OD600nm was evaluated with a spectrophotometer (BIO-RAD Smatspec^TM plus, Schiltigheim, France). In preliminary experiments, we tested RPMI-1640 culture and Sabouraud media. Similar data were obtained but the experiments were more reproducible with Sabouraud than with RPMI1640. Therefore, Sabouraud medium was used in the present study.
(§3) The yeasts (OD600nm = 0.001) were then plated on 96-well microplates and treated with different concentrations of the peptides of interest. After 24 h incubation at 37 °C under agitation, yeast growth was assessed by optical density (OD600nm) using a microplate spectrophotometer (Multiscan EX, Thermo Fisher Scientific, Waltham, MA, USA). All tests were performed in triplicate. The MIC (minimal inhibitory concentration), defined as the lowest concentration of drug able to inhibit 100% of the growth of a pathogen, was determined for the different peptides against all previously described Candida strains, using a modified Gompertz model.

[2] = test system: Candida albicans “S” (ATCC 10231); assay type: cell-based; details: ATCC 10231, 24 h, pH 5.6
Method: as §1, §2, §3

MIC C. albicans “R” [1]	MIC C. albicans “S” [2]	Structure (SMILES)
>100 µg/mL	>100 µg/mL	CC(C)C[C@H](N)C(=O)N[C@@H](CO)C(=O)N[C@@H](Cc1ccccc1)C(=O)N[C@@H](CCCNC(=N)N)C(=O)O [Peptide P8] (H-LSFR-OH)
>100 µg/mL	>100 µg/mL	CSCC[C@H](NC(=O)[C@H](CO)NC(=O)[C@H](CO)NC(C)=O)C(=O)N[C@@H](CCCCN)C(=O)N[C@@H](CC(C)C)C(=O)N[C@@H](CO)C(=O)N[C@@H](Cc1ccccc1)C(=O)N[C@@H](CCCNC(=N)N)C(=O)O [Peptide P15] (Ac-SSMKLSFR-OH)
50 µg/mL (≈ 28.1 µM)	50 µg/mL (≈ 28.1 µM)	CSCC[C@H](NC(=O)[C@H](CO)NC(=O)[C@@H](N)CO)C(=O)N[C@@H](CCCCN)C(=O)N[C@@H](CC(C)C)C(=O)N[C@@H](CO)C(=O)N[C@@H](Cc1ccccc1)C(=O)N[C@@H](CCCNC(=N)N)C(=O)N[C@@H](C)C(=O)N[C@@H](CCCNC(=N)N)C(=O)N[C@@H](C)C(=O)N[C@@H](Cc1ccc(O)cc1)C(=O)NCC(=O)N[C@@H](Cc1ccccc1)C(=O)N[C@@H](CCCNC(=N)N)C(=O)O [hCtl] (H-SSMKLSFRARAYGFR-OH)
>100 µg/mL	>100 µg/mL	CC(=O)N[C@@H](CC(C)C)C(=O)N[C@@H](CO)C(=O)N[C@@H](Cc1ccccc1)C(=O)N[C@@H](CCCNC(=N)N)C(=O)N[C@@H](C)C(=O)N[C@@H](CCCNC(=N)N)C(=O)O [Peptide P7] (Ac-LSFRAR-OH)
>100 µg/mL	>100 µg/mL	CSCC[C@H](NC(=O)[C@H](CO)NC(=O)[C@H](CCCNC(=N)N)NC(C)=O)C(=O)N[C@@H](CCCNC(=N)N)C(=O)N[C@@H](CC(C)C)C(=O)N[C@@H](CO)C(=O)N[C@@H](Cc1ccccc1)C(=O)N[C@@H](CCCNC(=N)N)C(=O)O [Peptide P3] (Ac-RSMRLSFR-OH)
>100 µg/mL	>100 µg/mL	CCCCCCCCCCCCCCCC(=O)N[C@@H](CC(C)C)C(=O)N[C@@H](CO)C(=O)N[C@@H](Cc1ccccc1)C(=O)N[C@@H](CCCNC(=N)N)C(=O)O [Peptide P11] (Palmitoyl-LSFR-OH; C-terminus assumed)
>100 µg/mL	>100 µg/mL	CC(=O)N[C@@H](CC(C)C)C(=O)N[C@@H](CO)C(=O)N[C@@H](Cc1ccccc1)C(=O)N[C@@H](CCCNC(=N)N)C(=O)O [Peptide P10] (Ac-LSFR-OH)
>100 µg/mL	>100 µg/mL	CSCC[C@H](N)C(=O)N[C@@H](CCCCN)C(=O)N[C@@H](CC(C)C)C(=O)N[C@@H](CO)C(=O)N[C@@H](Cc1ccccc1)C(=O)N[C@@H](CCCNC(=N)N)C(=O)O [Peptide P18] (H-MKLSFR-OH)
>100 µg/mL	>100 µg/mL	CC(=O)N[C@@H](CCCCN)C(=O)N[C@@H](CC(C)C)C(=O)N[C@@H](CO)C(=O)N[C@@H](Cc1ccccc1)C(=O)N[C@@H](CCCNC(=N)N)C(=O)N[C@@H](C)C(=O)O [Peptide P17] (Ac-KLSFRA-OH)
>100 µg/mL	>100 µg/mL	CC(C)C[C@@H](N)C(=O)N[C@H](CO)C(=O)N[C@H](Cc1ccccc1)C(=O)N[C@H](CCCNC(=N)N)C(=O)O [Peptide P9] (H-[dL][dS][dF][dR]-OH; N-terminus and C-terminus assumed)
>100 µg/mL	>100 µg/mL	CSCC[C@H](NC(=O)[C@H](CO)NC(=O)[C@@H](N)CO)C(=O)N[C@@H](CCCCN)C(=O)N[C@@H](CC(C)C)C(=O)N[C@@H](CO)C(=O)N[C@@H](Cc1ccccc1)C(=O)N[C@@H](CCCNC(=N)N)C(=O)O [Peptide P14] (H-SSMKLSFR-OH)
>100 µg/mL	>100 µg/mL	CCCCCCCCCCCCCCCC(=O)N[C@@H](CCCNC(=N)N)C(=O)N[C@@H](CO)C(=O)N[C@@H](CCSC)C(=O)N[C@@H](CCCNC(=N)N)C(=O)N[C@@H](CC(C)C)C(=O)N[C@@H](CO)C(=O)N[C@@H](Cc1ccccc1)C(=O)N[C@@H](CCCNC(=N)N)C(=O)O [Peptide P4] (Palmitoyl-RSMRLSFR-OH; C-terminus assumed)
100 µg/mL (≈ 95 µM)	50 µg/mL (≈ 47.5 µM)	CSCC[C@H](NC(=O)[C@H](CO)NC(=O)[C@@H](N)CCCNC(=N)N)C(=O)N[C@@H](CCCNC(=N)N)C(=O)N[C@@H](CC(C)C)C(=O)N[C@@H](CO)C(=O)N[C@@H](Cc1ccccc1)C(=O)N[C@@H](CCCNC(=N)N)C(=O)O [Peptide P2] (H-RSMRLSFR-OH)
>100 µg/mL	>100 µg/mL	CCCCCCCCCCCCCCCC(=O)N[C@@H](CO)C(=O)N[C@@H](CO)C(=O)N[C@@H](CCSC)C(=O)N[C@@H](CCCCN)C(=O)N[C@@H](CC(C)C)C(=O)N[C@@H](CO)C(=O)N[C@@H](Cc1ccccc1)C(=O)N[C@@H](CCCNC(=N)N)C(=O)O [Peptide P16] (Palmitoyl-SSMKLSFR-OH; C-terminus assumed)
>100 µg/mL	>100 µg/mL	CCCCCCCCCCCCCCCC(=O)N[C@@H](CCSC)C(=O)N[C@@H](CCCCN)C(=O)N[C@@H](CC(C)C)C(=O)N[C@@H](CO)C(=O)N[C@@H](Cc1ccccc1)C(=O)N[C@@H](CCCNC(=N)N)C(=O)O [Peptide P19] (Palmitoyl-MKLSFR-OH; C-terminus assumed)
>100 µg/mL	>100 µg/mL	CC(C)C[C@@H](NC(=O)[C@H](N)CCCNC(=N)N)C(=O)N[C@H](CO)C(=O)N[C@H](Cc1ccccc1)C(=O)N[C@H](CCCNC(=N)N)C(=O)N[C@H](C)C(=O)N[C@H](Cc1c[nH]c2ccccc12)C(=O)O [Peptide P6] (H-[dR][dL][dS][dF][dR][dA][dW]-OH; N-terminus and C-terminus assumed)
>100 µg/mL	>100 µg/mL	CSCC[C@H](NC(=O)[C@H](CO)NC(=O)[C@H](CO)NC(C)=O)C(=O)N[C@@H](CCCCN)C(=O)N[C@@H](CC(C)C)C(=O)N[C@@H](CO)C(=O)N[C@@H](Cc1ccccc1)C(=O)N[C@@H](CCCNC(=N)N)C(=O)N[C@@H](C)C(=O)N[C@@H](CCCNC(=N)N)C(=O)NCC(=O)N[C@@H](Cc1ccc(O)cc1)C(=O)NCC(=O)N[C@@H](Cc1ccccc1)C(=O)N[C@@H](CCCNC(=N)N)C(=O)O [Peptide P12] (Ac-SSMKLSFRARGYGFR-OH; C-terminus assumed)
>100 µg/mL	>100 µg/mL	CC(C)C[C@H](NC(=O)[C@@H](N)CCCNC(=N)N)C(=O)N[C@@H](CO)C(=O)N[C@@H](Cc1ccccc1)C(=O)N[C@@H](CCCNC(=N)N)C(=O)N[C@@H](C)C(=O)N[C@@H](Cc1c[nH]c2ccccc12)C(=O)O [Peptide P5] (H-RLSFRAW-OH)
>100 µg/mL	>100 µg/mL	CCCCCCCCCCCCCCCC(=O)N[C@@H](CO)C(=O)N[C@@H](CO)C(=O)N[C@@H](CCSC)C(=O)N[C@@H](CCCCN)C(=O)N[C@@H](CC(C)C)C(=O)N[C@@H](CO)C(=O)N[C@@H](Cc1ccccc1)C(=O)N[C@@H](CCCNC(=N)N)C(=O)N[C@@H](C)C(=O)N[C@@H](CCCNC(=N)N)C(=O)NCC(=O)N[C@@H](Cc1ccc(O)cc1)C(=O)NCC(=O)N[C@@H](Cc1ccccc1)C(=O)N[C@@H](CCCNC(=N)N)C(=O)O [Peptide P13] (Palmitoyl-SSMKLSFRARGYGFR-OH; C-terminus assumed)

Source: publication PMC8876135, “The Catestatin-Derived Peptides Are New Actors to Fight the Development of Oral Candidosis” (International Journal of Molecular Sciences, 2022)
